For one compound, inhibition results are on record in patent publication US20090196885A1, “Cancer Treatment” (National Health Research Institutes, priority 2005, published 2009).

Structures are written as SMILES.

The test system of this assay is Hep G2 hepatoma cells. The experiment in a line: In vitro cancer cell proliferation assay (sulforhodamine B), Hep G2. As to conditions: Homo sapiens, HepG2, 144 h; lovastatin 2 μM alone; incubation for 6 days; read-out: inhibited growth of Hep G2 cells. The class given is cell-based. As for the experimental part: Hep G2 hepatoma cells were seeded in a 96-well culture plate (2000 cells/well) and cultured overnight in 100 μl of complete DMEM.

For the compound `CC[C@H](C)C(=O)O[C@H]1C[C@@H](C)C=C2C=C[C@H](C)[C@H](CC[C@@H]3C[C@@H](O)CC(=O)O3)[C@H]21` [lovastatin], the inhibition at 2 µM amounted to 11.5%.
